# Measured values taken from publication PMC8456958, “Selective Bacterial Targeting and Infection‐Triggered Release of Antibiotic Colistin Conjugates” (Angewandte Chemie (International Ed. in English), 2021).
# Positions of bridges follow the written chain, without caps; N, C: chain ends. Non-standard residues stand in square brackets, D forms with d. Residues, ends and D or L forms follow the SMILES beside them. *: point of attachment. Heptanoyl(6-Me) = CC(C)CCCCC(=O)*; Dab = NCC[C@H](N)C(=O)O
# Columns and labels:
# E. coli K12 = assay type: cell-based, Escherichia coli
# Protocol: Determination of antibacterial activities by broth dilution assay
# Bacterial suspensions at 5-6 x 10^5 CFU (1:1000 dilution of a bacterial suspension of OD600 = 1) in T-medium were incubated in volumes of 200 µl in sterile clear 96-well microtiter plates at 37 °C in a wet chamber with serial dilution of peptide-colistin constructs and controls (32 – 0.016 µM) for 18 h.
# External neutrophil elastase was added at 10 mU/ml or 100 mU/ml to each well at the start of incubation, where indicated. After the incubation, the plate was placed for 5 min on a MTP shaker to generate homogenous bacterial suspensions. OD600 was then determined in a microplate reader. The wells with the lowest compound concentration without growth defined the MICs. […]
# Figure S7. Heat plot of the growth of E. coli K12 and E. coli DSM 1116 in presence of 6. Rows A-D: E. coli K12; Rows E-H: E. coli DSM 1116; A + E colistin; B + F peptide-colistin construct 6; C + G peptide-colistin construct 6 + 10 mU/ml elastase; D + H bacteria without compounds. The numbers below the heatplot depict the concentration of colistin and peptides in µM. Conditions: T medium, incubation 20 h at 37 °C in wet chamber; inoculum: cultures at OD = 1.0 diluted 1:1000 (5-6 x 10^5 CFU/ml). […]
# Figure S10. Heat plot of the growth of E. coli in presence of 48 and 49. Row A: E. coli K12 without added compounds; B colistin B; C peptide-colistin construct 49; D peptide-colistin construct 49 + 10 mU/ml elastase; E ElsaSub-colistin; F 48 with 10 mU elastase; G 4; H 4 with […]. The numbers depict the concentration of colistin and peptides in µM. Conditions: T medium, incubation 17.5 h at 37 °C in wet chamber; inoculum 5-6 x 10^5 CFU/ml. […]
# with elastase 10 mU/ml pos-1-isomer (22) […]
# with elastase 10 mU/ml pos-3-isomer (28) […]
# with elastase 10 mU/ml pos-5-isomer (34) […]
# with elastase 10 mU/ml pos-8-isomer (40) […]
# with elastase 10 mU/ml pos-9-isomer (46)
# Figure S11. Heat plot of the growth of E. coli in presence of positional isomers obtained by total chemical synthesis. Conditions: T medium, incubation for 20 h at 37 °C in wet chamber; inoculum 5-6 x 10^5 CFU/ml. Addition of neutrophil elastase at 10 and 100 mU/ml, as indicated. Concentrations of isomers stated below the heat plot in µg/ml. […]
# E. coli DSM 1116 = assay type: cell-based, Escherichia coli; settings: Table 1; without elastase; broth dilution, T-medium, 5-6 x 10^5 CFU, 37 °C, OD600 readout
# Protocol: min at rt, and blood smears were prepared on microscopy slides that were air-dried in the dark. Phase contrast and fluorescence (485/520 nm) microscopy pictures were captured with a Zeiss Axiovert with a 40× APO 1.4 lens. For quantification of fluorescence, pictures were analyzed by using ImageJ (v1.52).
# Outlines were drawn around each cell and circularity, area and mean fluorescence were determined.
# In addition, several background readings were taken at empty areas. Total corrected cellular fluorescence (TCCF) = integrated density – (area of selected cell × mean fluorescence of background readings), was calculated for 200 bacteria for each assay.
# Determination of antibacterial activities by broth dilution assay […]
# External neutrophil elastase was added at 10 mU/ml or 100 mU/ml to each well at the start of incubation, where indicated. […] OD600 was then determined in a microplate reader. […]
# Quantification of 1, 6 and 7
# To 50 µl samples 50 µl acetic acid were added and the samples were filtered through 10 kDa ultrafiltration columns (Amicon Ultra 0.5 ml, Millipore) by centrifugation for 60 min at 14.000 x g and 4 °C. […] Colistin was quantified on a Q-Trap 6500 HPLC-MS with samples of 5 µl each as described above. […]
# [1] = Table 2, E. coli K12, conservative MIC readouts of at least three independent biological experiments
smiles,measurement,setting,value
"CC(C)CCCCC(=O)N[C@@H](CCN)C(=O)N[C@H](C(=O)N[C@@H](CCN)C(=O)N[C@H]1CCNC(=O)[C@H]([C@@H](C)O)NC(=O)[C@H](CCN)NC(=O)[C@H](CCN)NC(=O)[C@H](CC(C)C)NC(=O)[C@@H](CC(C)C)NC(=O)[C@H](CCN)NC1=O)[C@@H](C)O [Compound 1, colistin B, reference compound] ({Heptanoyl(6-Me)}-[Dab]T[Dab][Dab][Dab][dL]L[Dab][Dab]T; lactam 4-C)","MIC, E. coli K12","E. coli K12; Table 1, without elastase, broth dilution, T-medium, 5-6 x 10^5 CFU, 37 °C, OD600 readout",0.063 µM
same,MIC with 10 mU mL^−1 Elastase,E. coli K12; [1],0.031 µM
same,MIC with 100 mU mL^−1 Elastase,E. coli K12; [1],0.031 µM
same,MIC without Elastase,E. coli K12; [1],0.031 µM
same,"MIC, E. coli DSM 1116",E. coli DSM 1116,0.063 µM
